Laboratory results as given in ChEMBL document CHEMBL1201862, “PubChem BioAssay data set” (2004).
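In this assay, cells in 96-well plates receive the compound at five concentrations for 48 hours. Endpoints are linearly interpolated between the surrounding concentrations. Abbreviation: GI50, concentration required for 50% inhibition of growth.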 Activity calls are given as the source filed them. No stated cut-off is given here; in the data, active = GI50 up to about 1.1 µM and inactive = higher.

Experiments:
Experiment in all cases: growth of human tumour cells (NCI), 48 h
[1] = test system: Hs-578T
[2] = test system: MCF7
[3] = test system: HOP-92
[4] = test system: SK-MEL-5
[5] = test system: DU-145
[6] = test system: HCT-116
[7] = test system: SK-OV-3
[8] = test system: SF-268
[9] = test system: UACC-257
[10] = test system: SF-539
[11] = test system: SNB-75
[12] = test system: SR
[13] = test system: MDA-MB-435
[14] = test system: OVCAR-8
[15] = test system: KM12
[16] = test system: A498
[17] = test system: SK-MEL-2
[18] = test system: LOX IMVI
[19] = test system: TK-10
[20] = test system: CAKI-1

Measured: GI50

CO[C@H]1[C@@H](O)[C@@H](C)O[C@@H](O[C@H]2CC[C@@]3(C)[C@H](CC[C@@H]4[C@@H]3CC[C@]3(C)[C@@H](C5=CC(=O)OC5)[C@@H](OC(C)=O)C[C@]43O)C2)[C@@H]1O [NERITALOSIDE]
active: [1] 20.2 nM | [2] 160 nM | [3] 149 nM | [4] 40.5 nM | [5] 17.6 nM | [6] 21.9 nM | [7] 80.7 nM | [8] 24 nM | [9] 100 nM | [10] 24.8 nM | [11] 112 nM | [12] 53.3 nM | [13] 124 nM | [14] 72.3 nM | [15] 157 nM | [16] 281 nM | [17] 129 nM | [18] 70.8 nM | [19] 16.4 nM | [20] 20.8 nM
